Data: patent US5053338A, “Kinetic resolution of pyridazinones using lipase” (Glaxo Inc., priority 1990, dated 1991)

How the values were obtained:
[1] = tested on: anesthetized dogs (left ventricular dP/dt); test: Anesthetized Dog: inotropic effect (increase in baseline dP/dt); assay type: in vivo; settings: infusion of atenolol
Description: Inotropic effects were evaluated in barbiturate-anesthetized dogs by differentiating left intraventricular pressure. This procedure was carried out essentially as described by M. K. Grizzel et al in the FASEB Journal, Vol. 3, page 1039, abstract 4728 (1989). […] Cardiac output was determined via thermodilution with a Spectramed computer (Starcom, Oxnard, Calif.) and a 5F Swan Ganz catheter which was inserted into the right jugular vein and positioned in the pulmonary artery. […] A lead II electrocardiogram was measured using subcutaneous electrodes. […] Rectal temperature was monitored and maintained at 37°-38° C. with a heating pad (Baxter Health Care model K20, McGaw Park, Ill.). All variables were recorded using a Gould 3800S physiograph.
Isoproterenol ([…]) was injected i.v. into the cephalic vein at 10 min intervals except for when the test drug infusion was begun. […] Inhibition of the isoproterenol responses on contractibility (dP/dt), heart rate and diastolic blood pressure were determined at each dose of test compound. The inotropic effect of each compound was determined by comparing the level of dP/dt at the end of each 10 min period to that of the level of dP/dt just prior to the infusion of test compound. […]

rat aorta [2] = test: Rat Aorta Protocol (relaxation of phenylephrine-contracted rat aorta rings); assay type: cell-based; settings: phenylephrine 1×10^-7 M, methylene blue and propranolol present, endothelium removed, read-out: IC50 (concentration producing a relaxation equivalent to 50% of the maximal relaxation induced by nitroprusside)
Description: Such vasorelaxation appears to be related to inhibition of the phosphodiesterase (PDE) isozyme related to the cardiac sarcoplasmic reticulum. Thus, relaxation of rat aorta can be used as a screen to eliminate compounds which are not PDE inhibitors prior to testing for actual inotropic activity.
Rings of rat aorta (endothelium removed) were prepared for the measurement of isometric force in isolated tissue organ chambers essentially as previously described by T. J. Rimele et al in the Journal of Pharmacol. Exp. Ther. 245:102-111 (1988). The experimental portion of the protocol began with the addition of methylene blue (1×10^-5 M) and propranolol (1×10^-6 M) to each organ chamber to inhibit basal cGMP accumulation due to soluble guanylate cyclase and beta-adrenoceptors.Phenylephrine (1×10^-7 M) was then added and the rings were allowed to obtain a stable contractile response after which time, the test compound was added in a cumulative fashion. The relaxation induced by each concentration of the test compound was expressed as a percentage of the maximal relaxation produced by nitroprusside (1×10^-4 M) The results were graphically represented as a plot of the percentage relaxation vs. the negative log of the molar concentration of the test compound. […]

rat aorta [3] = settings: R. F. Kauffman et al., J. Pharmacol. Exp. Ther. 242:864-872 (1987); cited from earlier work

O=C(COc1ccc(C2=NNC(=O)CC2)cc1Cl)NCCNC[C@H](O)COc1ccccc1 [Example 19, 6-{4-[N-[2-[3-phenoxy-2-hydroxypropylamino]ethyl]carbamoylmethoxy]-3-chlorophenyl}-4,5-dihydro-3(2H)-pyridazinone]
effect of atenolol on the inotropic effects [1]: not blocked by atenolol
IC50 (rat aorta [2]): 340 nM

CSc1ccc(C(=O)c2[nH]c(=O)[nH]c2C)cc1 [enoximone]
relaxation of rat aorta (rat aorta [3]): marked relaxation

Cc1[nH]c(=O)c(C#N)cc1-c1ccncc1 [milrinone]
relaxation of rat aorta (rat aorta [3]): marked relaxation
